From ChEMBL document CHEMBL1201862, “PubChem BioAssay data set” (2004)
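These data come from cells grown in 96-well plates and exposed to compound for 48 hours at five concentrations. Abbreviation: GI50, concentration required for 50% inhibition of growth.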 Activity calls are given as the source filed them. Rule as the data show it: active = GI50 up to about 1.1 µM and inactive = higher.

What was measured:
Experiment in all cases: NCI-60 cell line screen, 48 h
[1] = tested on: CAKI-1
[2] = tested on: LOX IMVI
[3] = tested on: UO-31
[4] = tested on: HCT-116
[5] = tested on: TK-10
[6] = tested on: HL-60
[7] = tested on: HCC 2998
[8] = tested on: ACHN
[9] = tested on: A498
[10] = tested on: COLO 205
[11] = tested on: OVCAR-5
[12] = tested on: LXFL 529
[13] = tested on: MOLT-4
[14] = tested on: M19-MEL
[15] = tested on: KM12
[16] = tested on: UACC-257
[17] = tested on: MCF7
[18] = tested on: MDA-MB-435
[19] = tested on: MDA-MB-231

Measured: GI50

COC(=O)C(=O)C(CC(=O)Nc1cccc(C(F)(F)F)c1)C(=O)OC (stereo unspecified)
inactive: [1] > 100 µM | [2] > 100 µM | [3] > 100 µM | [4] > 100 µM | [5] > 100 µM | [6] > 100 µM | [7] > 100 µM | [8] > 100 µM | [9] > 100 µM | [10] > 100 µM | [11] > 100 µM | [12] > 100 µM | [13] > 100 µM | [14] > 100 µM

COC1CC(OS(=O)(=O)c2ccc(C)cc2)C(OS(=O)(=O)c2ccc(C)cc2)C(COS(=O)(=O)c2ccc(C)cc2)O1 (stereo unspecified)
inactive: [1] 2.72 µM | [3] 3.76 µM | [4] 14.5 µM | [6] 30.1 µM | [7] 12.8 µM | [8] 2.9 µM | [10] 37.9 µM | [11] 11.3 µM | [12] 5.77 µM | [15] 52 µM | [16] 8.89 µM | [13] > 100 µM | [14] 7.38 µM

CCN(CC)CCCC(C)Nc1ccnc2cc(Cl)ccc12 (stereo unspecified) [CHLOROQUINE PHOSPHATE]
inactive: [1] 20.8 µM | [17] 19.1 µM | [2] 20.6 µM | [3] 14.9 µM | [4] 12 µM | [5] 37.3 µM | [6] 13.3 µM | [7] 19.5 µM | [18] 16.4 µM | [8] > 85.1 µM | [9] 24.3 µM | [10] 9.38 µM | [11] 25.1 µM | [12] 57.3 µM | [15] 31.8 µM | [16] 23.1 µM | [13] 15.2 µM | [19] 15.8 µM

O=C1COc2cc3c(cc2N1)SCCC(=O)N3
inactive: [1] > 100 µM | [3] > 100 µM | [4] > 100 µM | [5] > 100 µM | [6] > 100 µM | [7] > 100 µM | [9] > 100 µM | [10] > 100 µM | [12] > 100 µM | [15] > 100 µM | [16] > 100 µM | [13] > 100 µM | [14] > 100 µM

COc1ccc2ccc([Se]c3ccc4ccc(OC)cc4c3)cc2c1
inactive: [1] 38.7 µM | [2] > 100 µM | [3] 23.7 µM | [4] 58.1 µM | [5] > 100 µM | [6] > 100 µM | [7] > 100 µM | [8] 29.2 µM | [9] > 100 µM | [10] > 100 µM | [12] > 100 µM | [15] 51.9 µM | [16] > 100 µM | [13] 63.2 µM | [14] > 100 µM

CCCCCc1cc(OC(=O)c2c(O)cc(OC)cc2CCCCC)cc(O)c1C(=O)O
inactive: [1] 19.1 µM | [2] 17.7 µM | [3] 13.6 µM | [5] 18.6 µM | [6] 24.9 µM | [7] 15.3 µM | [8] 17.3 µM | [9] 19.8 µM | [10] 18.2 µM | [11] 19.1 µM | [12] 16.5 µM | [15] 17.3 µM | [13] 23.5 µM | [14] 18.4 µM

NC(=O)NC12CC3CC(CC(F)(C3)C1)C2
inactive: [2] > 100 µM | [3] > 100 µM | [4] > 100 µM | [5] > 100 µM | [6] > 100 µM | [7] > 100 µM | [8] > 100 µM | [9] > 100 µM | [10] > 100 µM | [11] > 100 µM | [12] > 100 µM | [15] > 100 µM | [16] > 100 µM | [13] > 100 µM | [14] > 100 µM

CC(C#N)c1cn(S(=O)(=O)c2ccccc2)c2ccccc12 (stereo unspecified)
inactive: [1] 34.6 µM | [3] 15.8 µM | [4] 40.1 µM | [5] > 100 µM | [6] 26 µM | [7] 76.7 µM | [8] 33.3 µM | [10] > 100 µM | [11] > 100 µM | [12] 34.9 µM | [15] 72.1 µM | [16] 31.3 µM | [13] 35.9 µM | [14] 42.5 µM

Cc1cccc(C(C)(C)C)c1NC(=O)CC1Sc2ccccc2NC1=O (stereo unspecified)
inactive: [1] 87.3 µM | [3] 60.5 µM | [4] 22.4 µM | [5] 41.7 µM | [6] 46.1 µM | [7] > 100 µM | [8] 57.5 µM | [9] > 100 µM | [10] 24 µM | [11] > 100 µM | [12] 52.6 µM | [15] 95.1 µM | [16] 36.2 µM | [13] 43.3 µM | [14] 66.8 µM

CCC(CO)Nc1nc2c(c(=O)n(C)c(=O)n2C)n1CCO (stereo unspecified)
inactive: [3] > 100 µM | [4] > 100 µM | [5] > 100 µM | [7] > 100 µM | [8] > 100 µM | [10] > 100 µM | [11] > 100 µM | [12] > 100 µM | [15] > 100 µM | [16] > 100 µM | [13] > 100 µM | [14] > 100 µM

CC(=O)Oc1c(C)n(CCCl)ccc1=O
inactive: [1] > 100 µM | [2] > 100 µM | [3] 59.2 µM | [4] > 100 µM | [5] 22.5 µM | [6] > 100 µM | [8] 69.3 µM | [9] > 100 µM | [10] > 100 µM | [11] 56.6 µM | [12] > 100 µM | [15] > 100 µM | [16] > 100 µM | [13] > 100 µM | [14] > 100 µM

O=C(Nc1cccc([N+](=O)[O-])c1)C(=O)C(C(=O)c1ccccc1-c1ccccc1)C1OC(=O)c2ccccc21 (stereo unspecified)
inactive: [2] 17 µM | [3] 20.2 µM | [4] 12.8 µM | [5] 30.4 µM | [6] 16.2 µM | [7] 16.2 µM | [8] 35.6 µM | [9] 23.2 µM | [10] 20 µM | [11] 22 µM | [12] 13.1 µM | [15] 20 µM | [16] 20.1 µM | [13] 13.2 µM | [14] 15.9 µM

CC1=CC(/C=C(\C)CCCc2ccoc2)C2(OC(=O)C(C)=C2O)[C@H]2C1CC[C@@H]2C (stereo partly specified)
inactive: [1] 32.1 µM | [2] 21.8 µM | [3] 16.5 µM | [4] 15.6 µM | [5] 29.2 µM | [7] 29.9 µM | [8] 19.8 µM | [9] 15.5 µM | [10] 21.9 µM | [12] 18.7 µM | [15] 31.8 µM | [16] 29.5 µM | [13] 19.2 µM | [14] 29 µM

COc1cc2c(c3c1C=CCO3)C(=O)c1ccccc1C2=O
inactive: [2] 28.6 µM | [3] 29.5 µM | [4] 33.3 µM | [5] 50.4 µM | [6] 19.3 µM | [7] 50.2 µM | [8] 34.2 µM | [10] 19.6 µM | [11] > 100 µM | [12] 31.2 µM | [15] 30.3 µM | [16] 25.3 µM | [13] 23.6 µM | [14] 76.6 µM
